Experimental findings from patent US8058008B2, “Method for extracting quantitative information relating to an influence on a cellular response” (Fisher Bioimage APS, priority 1997, dated 2011) are described below.

For assay [1], the system named is PKAc-F64L-S65T-GFP fusion. The assay is described as follows: PKAc-F64L-S65T-GFP redistribution in stably transfected CHO cells (fluorescence microscopy, image analysis). It is filed as cell-based, murine. The method, then:
The catalytic subunit of the murine cAMP dependent protein kinase (PKAc) was fused C-terminally to a F64L-S65T derivative of GFP. The resulting fusion (PKAc-F64L-S65T-GFP) was used for monitoring in vivo the translocation and thereby the activation of PKA.
Untransfected CHO cells were used as the control. […] Expression of GR was maintained with 500 mg G418/ml (Neo marker) and PKAc-F64L-S65T-GFP was maintained with 500 mg Zeocin/ml (Sh ble marker). CHO cells were also simultaneously co-transfected with vectors containing the PKAc-F64L-S65T-GFP fusion and the human a2a adrenoceptor (hARa2a).
For fluorescence microscopy, cells were allowed to adhere to Lab-Tek chambered cover-glasses (Nalge Nunc Int., Naperville, Ill., USA) for at least 24 hours and cultured to about 80% confluence. Prior to experiments, the cells were cultured over night without selection pressure in HAM F-12 medium with glutamax (Life Technologies), 100 mg penicillin-streptomycin mixture ml^−1 and 0.3% FBS. This medium has low autofluorescence enabling fluorescence microscopy of cells straight from the incubator.
The cells were illuminated with a 100 W HBO arc lamp.
Method 1: Stepwise Procedure for Quantitation of Translocation of PKA:
3. The image histogram, i.e., the frequency of occurrence of each intensity value in the image, was calculated.
4. A smoothed, second derivative of the histogram was calculated and the second zero is determined. […]
5. The value determined in step 4 was subtracted from the image. […]
6. The variance (square of the standard deviation) of the remaining pixel values was determined. […]
Method 2: Alternative Method for Quantitation of PKA Redistribution:
1. […] The area of each image occupied by the aggregates is calculated by counting pixels in the segmented areas. […] A value of zero (0) indicates no redistribution of fluorescence from the starting condition. […]
As described above, the time it took for a response to come to completion was dependent on the forskolin dose (FIG. 5) In addition the degree of responses was also dose dependent. […] The amount of cAMP produced was measured in an SPA assay. […]

For a further assay, the system named is EGFP-Erk1 fusion. As to the kind of experiment: EGFP-Erk1 nuclear translocation in HEK293 cells. It is filed as cell-based, human. The text has this: b) The human Erk1 gene (GenBank Accession number: X60188) was amplified using PCR according to standard protocols with primers Erk1-top (SEQ ID NO:9) and Erk1-bottom/+stop (SEQ ID NO:10). The PCR product was digested with restriction enzymes EcoR1 and BamH1, and ligated into pEGFP-C1 (Clontech, Palo Alto; GenBank Accession number U55763) digested with EcoR1 and BamH1. This produces an EGFP-Erk1 fusion (SEQ ID NO:38 &39) under the control of a CMV promoter.
The plasmid containing the EGFP-Erk1 fusion was transfected into HEK293 cells employing the FUGENE transfection reagent (Boehringer Mannheim). Prior to experiments the cells were grown to 80%-90% confluency 8 well chambers in DMEM with 10% FCS. […] Just before starting the experiment, the HAM F-12 was replaced with Hepes buffer following a wash with Hepes buffer. This removes the PD98059 inhibitor; if blocking of MEK1 is still wanted (e.g. in control experiments), the inhibitor is included in the Hepes buffer.
The experimental setup of the microscope was as described in example 1.
60 images were collected with 10 seconds between each, and with the test compound added after image number 10.
Redistribution of GFP fluorescence is expressed in this example as the change in the ratio value between areas in nuclear versus cytoplasmic compartments of the cell. Each time profile is the average of nuclear to cytoplasmic ratios from six cells in each treatment.

For the next assay, the system named is cAMP. As to the kind of experiment: Scintillation proximity assay (SPA) of cAMP produced in CHO cells. The format is cell-based, Chinese hamster. To be noted: 8 concentrations 0.01-50 mM (n=4), 100 mM IBMX, 10 min. As to the method:
7. Scintillation proximity assay (SPA) for independent quantitation of cAMP:
Cells were cultured in HAM F-12 medium as described above, but in 96-well plates. The medium was exchanged with Ca^2+-HEPES buffer including 100 mM IBMX and the cells were stimulated with different concentrations of forskolin for 10 min. Reactions were stopped with addition of NaOH to 0.14 M and the amount of cAMP produced was measured with the cAMP-SPA kit, RPA538 (Amersham) as described by the manufacturer.
As described above, the time it took for a response to come to completion was dependent on the forskolin dose (FIG. 5) In addition the degree of responses was also dose dependent. To test the PKA-F64L-S65T-GFP fusion protein translocation in a semi high through-put system, CHO cells stably transfected with the PKA-F64L-S65T-GFP fusion was stimulated with buffer and 5 increasing doses of forskolin (n=8). […] In parallel, cells were stimulated with buffer and 8 increasing concentrations of forskolin (n=4) in the range 0.01-50 mM. The amount of cAMP produced was measured in an SPA assay. A steep increase was observed between 1 and 5 mM forskolin coincident with the steepest part of the curve for fusion protein translocation (also FIG. 6)
(In a scintillation proximity assay essentially only radioactivity close to the scintillant gives light.)

For assay [2], the target named is T1, PKA-F64L-S65T-GFP probe / human a2a adrenoceptor (hARa2a) (Homo sapiens, UniProt P08913).
T1 construct: expressed in transfected cells; host or cells: CHO, transient co-transfection
T1 sequence (P08913 1-465): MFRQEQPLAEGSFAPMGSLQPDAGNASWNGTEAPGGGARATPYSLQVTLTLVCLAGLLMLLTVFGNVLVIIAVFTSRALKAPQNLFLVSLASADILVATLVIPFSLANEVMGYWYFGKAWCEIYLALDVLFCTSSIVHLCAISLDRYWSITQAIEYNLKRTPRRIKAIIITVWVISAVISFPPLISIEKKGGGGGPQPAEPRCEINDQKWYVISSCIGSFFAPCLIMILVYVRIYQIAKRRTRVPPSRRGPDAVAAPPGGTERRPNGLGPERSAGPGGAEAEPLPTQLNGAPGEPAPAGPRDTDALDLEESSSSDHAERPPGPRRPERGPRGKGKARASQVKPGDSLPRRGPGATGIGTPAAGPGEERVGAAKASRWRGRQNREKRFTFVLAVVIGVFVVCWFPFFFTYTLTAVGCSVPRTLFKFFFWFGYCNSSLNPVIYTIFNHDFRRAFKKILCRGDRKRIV
The assay is described as follows: PKAc-F64L-S65T-GFP redistribution in transiently transfected CHO cells expressing hARa2a. It is filed as cell-based, murine. To be noted: 10 mM norepinephrine after 10 mM forskolin for 7.5 minutes, forskolin still present.
Protocol: Transiently transfected CHO cells expressing hARa2a and the PKA-F64L-S65T-GFP probe were treated with 10 mM forskolin for 7.5 minutes, then, in the continued presence of forskolin, exposed to 10 mM norepinephrine to stimulate the exogenous adrenoreceptors, which couple to a Gi protein, which inhibit adenylate cyclase.

The subject of assay [3] is actin-binding-domain-EGFP fusion. As to the kind of experiment: Actin-binding-domain-EGFP redistribution in CHO cells expressing the human insulin receptor. To be noted: insulin stimulation. It is filed as cell-based. The text has this:
The actin binding domain of the human alpha-actinin gene (GenBank Accession number: X15804) was amplified using PCR according to standard protocols with primers ABD-top (SEQ ID NO:90) and ABD-bottom/−stop (SEQ ID NO:91). The PCR product was digested with restriction enzymes Hind3 and BamH1, and ligated into pEGFP-N 1 (Clontech, Palo Alto; GenBank Accession number U55762) digested with Hind3 and BamH1. This produced an actin-binding-domain-EGFP fusion (SEQ ID NO:128 &129) under the control of a CMV promoter.
The resulting plasmid was transfected into CHO cells expressing the human insulin receptor.

Turning to `CC(C)Cn1c(=O)n(C)c(=O)c2[nH]cnc21` [IBMX], the “temporal profile of fusion protein redistribution compared with forskolin” value in assay [1] (1 mM dbcAMP, 100 mM IBMX, no adenylate cyclase stimulation) is “slow response”. Also, in assay [1] (10 mM forskolin and 100 mM IBMX, then washed 5-8 times with buffer containing 100 mM IBMX), the “return of fusion protein to prestimulatory localization after removal of forskolin” value was “did not return to its prestimulatory localization”.
`COc1cccc(-c2cc(=O)c3ccccc3o2)c1N` [PD98059]: in the assay on EGFP-Erk1 fusion (100 micromolar PD98059, 30-60 minutes in plain HAM F-12 without FCS), the “effect on nuclear EGFP-Erk1” value is listed as “effectively empties the nucleus of EGFP-Erk1”.
For the compound `CCCC(=O)Nc1ncnc2c1ncn2[C@@H]1O[C@@H]2COP(=O)(O)O[C@H]2[C@H]1OC(=O)CCC` [dbcAMP], in assay [1] (1, 10 and 50 mM forskolin, dbcAMP at 1 mM), the “translocation of the fusion protein” value was “dramatic translocation of the fusion protein from a punctate distribution to an even distribution throughout the cytoplasm”.
As for `C=C[C@@]1(C)CC(=O)[C@]2(O)[C@@]3(C)[C@@H](O)CCC(C)(C)[C@@H]3[C@H](O)[C@H](OC(C)=O)[C@@]2(C)O1` [forskolin, Forskolin], the “forskolin concentration range of steep increase in amount of cAMP produced” value in the assay on cAMP was in the range of 1 to 5 mM.
In the case of `NC[C@H](O)c1ccc(O)c(O)c1` [norepinephrine], the “localisation of fluorescence, indicative of a decrease in [cAMP]i” value in assay [2] is “reappearance of fluorescence in the cytoplasmic aggregates”.
With “EGF: growth factor added to activate the MAPK pathway and Erk1 nuclear translocation (NSDSECPLSHDGYCLHDGVCMYIEALDKYACNCVVGYIGERCQYRDLKWWELR; UniProt P01133 971-1023, looked up)”, the “redistribution of EGFP-Erk1” value in the assay on EGFP-Erk1 fusion (EGF 1-100 nM, within minutes) is given as “redistribution of EGFP-Erk1 from the cytoplasm into the nucleus”. The “relationship between concentration and nuclear translocation of EGFP-Erk1” value in the assay with EGFP-Erk1 fusion (change in nuclear to cytoplasmic ratio, six cells per treatment) is recorded as “dose-dependent relationship”.
As for insulin, the “redistribution of actin binding domain-EGFP probe” value in assay [3] is recorded as “redistributed into morphologically distinct membrane-associated structures”.
